Laboratory results taken from patent US20110201568A1, “PHYOTOCHEMICAL COMPOSITION AND A PROCESS THEREOF” (priority 2008, published 2011).
Converted amounts (≈) assume the structure as drawn. Where two headings read alike, the source gives them in different places.

Key:
[1] = system: Helicobacter pylori clinical strain 80A; assay: MIC/MBC microbroth dilution assay, strain 80A; assay type: cell-based; settings: cell count ~10^6-10^7 CFU/ml
Procedure: (§1) • MICs of the two samples were determined employing one clinical (80A) and one standard (ATCC 43504) strain (Osato, 2000). • Two-fold serial dilutions of the samples were performed in 96-well microtitre plate. • Plates were kept for appropriate time in Incubator under optimum growth condition. • Following incubation, the plates were examined visually, and the lowest concentration showing complete inhibition of growth was recorded as the MIC of the respective sample.
(§2) • Aliquots of culture in which no growth had been detected were taken from the wells of the above microtitre plates and used to streak on fresh agar plates. • MBCs were determined by visual inspection of such plates after further incubation and the point where no growth (less than 10 colony) appeared was considered as the MBCs.

[2] = system: Helicobacter pylori standard strain ATCC 43504; assay: Anti Helicobacter pylori disc diffusion sensitivity assay, standard strain ATCC 43504; assay type: cell-based; settings: 40 ng/disc (standard drug)
Procedure: (§3) For water containing sample, discs were first placed on the plate and then 5-10 μl of each sample, was added. The results are shown in below table: 10.

Helicobacter pylori = assay: Anti Helicobacter pylori activity, overall observations; assay type: cell-based; settings: strains 80A and ATCC 43504
[3] = system: Helicobacter pylori clinical strain 80A; assay: Anti Helicobacter pylori disc diffusion sensitivity assay, clinical strain 80A; assay type: cell-based; settings: 10 ng/disc (standard drug)
Procedure: as §3

[4] = system: Helicobacter pylori standard strain ATCC 43504; assay: MIC/MBC microbroth dilution assay, strain ATCC 43504; assay type: cell-based; settings: ATCC43504, cell count ~10^6-10^7 CFU/ml
Procedure: as §1, §2

[5] = target: porcine pancreatic elastase (Sus scrofa, UniProt P00772); assay: Elastase inhibition assay; assay type: biochemical
Procedure: In brief, 233 μl of each test solutions/reference standard (various concentrations) in 100 mM Tris-HCl pH8.0 and 7 μl of enzyme (porcine pancreatic elastase, 0.84 units/ml) solution was incubated at 37° C. for 15 mins. Following incubation, 20 μl of substrate (n-succinyl-ala-ala-ala-p-nitroanilide) solution was added and incubated at 37° C. for 30 mins. The absorbance was measured at 405 nm. A control reaction was carried out without the test sample. The percentage inhibition was calculated by the equation [absorbance (control)−absorbance (test)]/absorbance (control)×100]. The IC50 values were determined using log-probit analysis.

[6] = system: cold stress induced ulcer; assay: Cold stress induced ulcer model; assay type: in vivo, albino Wistar rats
[7] = system: pylorus ligation induced ulcer; assay: Pylorus ligation induced ulcer model; assay type: in vivo, albino Wistar rats; settings: 10 mg/kg; mean ± SEM, n = 6
Text: Details of the study are provided in the below table: 4. [table]

[8] = porcine pancreatic elastase, log-probit analysis, read-out: IC50 in elastase inhibition assay (converted)

Chain of porcine pancreatic elastase (P00772 27-266): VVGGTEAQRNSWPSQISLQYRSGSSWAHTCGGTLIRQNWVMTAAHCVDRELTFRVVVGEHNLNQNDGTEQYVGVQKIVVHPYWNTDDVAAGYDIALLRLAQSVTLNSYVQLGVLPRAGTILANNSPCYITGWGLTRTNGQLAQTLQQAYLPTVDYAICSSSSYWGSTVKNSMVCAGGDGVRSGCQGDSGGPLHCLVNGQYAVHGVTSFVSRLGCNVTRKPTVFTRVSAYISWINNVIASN

CC[C@H]1OC(=O)[C@H](C)[C@@H](O[C@H]2C[C@@](C)(OC)[C@@H](O)[C@H](C)O2)[C@H](C)[C@@H](O[C@@H]2O[C@H](C)C[C@H](N(C)C)[C@H]2O)[C@](C)(OC)C[C@@H](C)C(=O)[C@H](C)[C@@H](O)[C@]1(C)O [Clarithromycin]
MBC [1]: 0.025 µg/mL (≈ 0.0334 µM)
MIC [1]: 0.013 µg/mL (≈ 0.0174 µM)
Inhibition Zone Diameter in strain ATCC 43504 [2]: 1.8-2.0 cm
anti Helicobacter pylori activity (disc diffusion observation) (Helicobacter pylori): showed appropriate zone of inhibition
Inhibition Zone Diameter in strain 80A [3]: 1.8-2.0 cm
MBC [4]: 0.05 µg/mL (≈ 0.0668 µM)
MIC [4]: 0.025 µg/mL (≈ 0.0334 µM)

CCCCCCCCCCCCCCCCCCCCCCOC(=O)/C=C/c1ccc(O)c(O)c1 [Docosyl caffeate (2), docosyl caffeate]
IC50 [5, 8]: 2860 nM

CCCCCCCCCCCCCCCCCCCCOC(=O)/C=C/c1ccc(O)c(O)c1 [Eicosanyl caffeate(1), eicosanyl caffeate]
IC50 [5, 8]: 2150 nM

COc1ccc2[nH]c([S+]([O-])Cc3ncc(C)c(OC)c3C)nc2c1 (centres unmarked) [Omeprazole]
Ulcer index ([6]; 10 mg/kg, mean ± SEM, n = 6): 0.67 ± 0.49
pH ([6]; 10 mg/kg, mean ± SEM, n = 6): 6.50 ± 0.22
pH of stomach ([6]; comparison Table 12 remark, ulcer model not specified): the pH to more than 6
Gastric content [7]: 2.42 ± 0.24 mL
Total acidity [7]: 15.33 ± 0.92 mEq/L/100 g
Ulcer index [7]: 3.33 ± 1.38
pH [7]: 6.89 ± 0.14

C[C@H]1[C@H](C)CC[C@]2(C(=O)O)CC[C@]3(C)C(=CC[C@@H]4[C@@]5(C)CC[C@H](O)C(C)(C)[C@@H]5CC[C@]43C)[C@H]12 [Ursolic acid]
IC50 [5]: 23600 nM
